“Also recorded” adds a separate entry of the source.
Assays:
[1] = system: brain GSH and cysteine contents; test: Brain GSH and cysteine by HPLC; format: in vivo, mouse
Text: Four-week-old male C57BL/6J mice, weighing 18-20 g, were purchased from Jackson Laboratory. These mice were maintained at the Animal Facility of the Louisiana State University Health Sciences Center—Shreveport. Animal care and use in the experiments follow the guidelines in the Guide for the Care and Use of Laboratory Animals, published by the US National Institutes of Health. Following adaptation for 1 week, the mice were divided randomly into 4 groups: non-treated sham operation group (NT-sham group, n=6), non-treated I/R group (NT-I/R group, n=5), vehicle I/R group (Veh-I/R group, n=24), and streptozotocin I/R group (STZ-I/R group, n=19). […] On day 7, mice whose plasma glucose was more than 300 mg/dl were deemed to be diabetic. From diabetes onset at week 1, a group of diabetic mice were given 0.2 mM NAC in the drinking water for 3 weeks (n=3; a total of 4 weeks diabetes, 3 weeks NAC) or 1 week (n=9; a total of 2 weeks diabetes, 1 week NAC). Veh-I/R mice were injected with citrate buffer for consecutive 5 days, and a group of Veh-treated mice were given 0.2 mM NAC for 2 weeks in the drinking water before the ischemia operation (Veh+NAC group, n=8). Another Veh-treated mice were injected (intraperitoneally, 12 hr interval) with 0.5M BSO 24 h before the ischemia operation and during the 24 h reperfusion period (Veh+BSO group, n=10). All mice were 9 weeks old at sacrifice.
Tissue contents of GSH, cysteine and γGC were determined by high-performance liquid chromatography (HPLC). […] Separation of GSH, cysteine and γGC derivatives whose peaks were detected at 365 nm wavelength was performed on a 250×4.6-mm Alltech Lichrosorb NH2 10 μm anion-exchange column. GSH, cysteine and γGC contents were quantified by comparison to standards derivatized in the same manner. Protein pellets were dissolved in 1 M NaOH for protein quantitation and GSH, cysteine and γGC concentrations were expressed as nanomoles per mg protein.

[2] = system: brain protein carbonyl contents; test: Assay of brain protein carbonyls; format: in vivo, mouse; conditions: 2 week diabetic mice, NAC 1 week
Protocol: The extent of protein glycation was determined by measuring total protein carbonyl contents. Briefly, the brain homogenate was incubated with 10 mM of 2, 4-dinitro-phenylhydrazine (DNPH) in 2M hydrochloride acid (1:2 volume) for 1 h followed by precipitation with trichloroacetic acid (final concentration 10%). Following centrifugation, the precipitant was washed 3 times with ethanol-ethyl acetate (1:1) to remove free DNPH. The pellets were redissolved in 0.6 ml of 6 M guanidine hydrochloride solution containing 20 mM potassium phosphate (pH=2.3 adjusted with trifluoroacetic acid) at 37° C., and the insoluble materials were removed by centrifugation for 3 min at 11000 g. The absorbance was monitored at 366 nm, and protein carbonyl contents quantified using the extinction coefficient of 22000 M^−1 cm^−1.

[3] = system: cerebral microvessels of STZ diabetic mice; test: Light-dye induced thrombosis in cerebral arterioles and venules of STZ diabetic mice; format: in vivo, mouse
[4] = system: MG-protein adducts, occludin, GCLc in diabetic mouse brain; test: Western blot of MG-protein adducts, occludin, GCLc and occludin glycation in brain; format: in vivo; conditions: STZ mice, NAC 3 weeks
Protocol: Representative immunoblots are shown. The bar graphs show the quantitation of the protein band intensities normalized to β-actin; n=5/grp. […] Brain tissues were homogenized with RIPA lysis buffer containing 50 mM Tris, pH 8.0, 150 mM sodium chloride, 0.5% sodium deoxycholate, 0.1% SDS and protease inhibitor cocktail. Total protein (20 μg) per sample was loaded on 10% SDS-polyacrylamide gels. Electrophoresis was performed at 150V for 1 h, and transfer onto PVDF membranes at 100 V for 1 h. The membranes were blocked in 5% nonfat milk in TBST buffer containing 20 mM Tris, 137 mM NaCl, 0.1% Tween20, pH 7.6 for 40 min at room temperature followed by overnight incubation with either rabbit-anti-mouse occludin polyclonal antibody (1:2000), rabbit-anti-mouse GCGc polyclonal antibody (1:2000) or mouse anti-MG monoclonal antibody (1:2000) at 4° C. on an agitator. The second day, the PVDF membranes were incubated with HRP-conjugated goat-anti-rabbit or sheep-anti-mouse secondary antibody (1:10000) for 2 h at room temperature. Protein expression was detected using enhanced chemiluminescence (BIO-RAD) according to the manufacturer's instructions. The membranes were stripped and reprobed with anti-mouse actin monoclonal antibody (1:5000) to verify equal protein loading.

[5] = system: blood-brain barrier (BBB); test: Blood-brain barrier permeability by Evans Blue extrusion; format: in vivo, mouse; conditions: STZ mice, NAC 3 weeks
STZ diabetic mice = test: Tail bleed time as measure of coagulation; format: in vivo, mouse; conditions: 20 week diabetic mice; NAC 2 mM in drinking water for 3 weeks
Protocol: Turning to FIG. 24, as a measure of coagulation, tail bleed time was determined in animals that were diabetic for 20 weeks.

[6] = system: human brain microvascular endothelial cell; test: Endothelial barrier permeability by transendothelial electrical resistance; format: cell-based; conditions: MG with NAC
Protocol: Moreover, treatment with 100 μM MG in rat thoracic aortic rings for 24 h decreases acetylcholine-induced vascular relaxation via a reduction in p-eNOS (Ser1177) and p-AMPKα (Thr172). MG can reduce endothelial angiogenesis through RAGE-mediated, ONOO(^−)-dependent and autophagy-induced VEGFR2 degradation. […] This is exacerbated by GSH synthesis inhibition and prevented by NAC. The enhanced MG concentration in diabetic patients can also directly contribute to the platelet dysfunction associated with diabetes. Platelet dysfunction is characterized by hyperaggregability and reduced thrombus stability via potentiating thrombin-induced platelet aggregation and dense granule release, but inhibiting platelet spreading on fibronectin and collagen. Given that endothelial dysfunction and enhanced platelet activation could promote stroke, these studies indicate that MG can contribute to ischemic brain injury.

CC(=O)N[C@@H](CS)C(=O)O [NAC, N-acetylcysteine]
brain GSH concentrations ([1]; STZ diabetic mice, NAC in drinking water 1 or 3 weeks): significant increases in tissue GSH levels; also recorded: significantly higher; also recorded: increased
brain cysteine levels ([1]; vehicle and STZ diabetic mice given NAC): significant decrease; also recorded: significantly decreased
brain protein carbonyl contents [2]: highly effective in attenuating; also recorded: decreased significantly; also recorded: significantly attenuated
thrombosis onset and cessation times in cerebral venules and arterioles ([3]; 6 and 20 week diabetic mice, NAC 2 mM in drinking water for 3 weeks): provided protection against the accelerated thrombosis in both types of vessels
time to onset of thrombosis in brain microvessels ([3]; 20 week diabetic mice, NAC 2 mM in drinking water for 1 week): decreases the accelerated onset of thrombosis
MG-adduct formation in brain [4]: significantly decreased
occludin glycation in brain (immunoprecipitation) [4]: significantly decreased
total protein expression of GCLc [4]: does not alter
total protein expression of occludin [4]: does not alter
leakage of Evans Blue (BBB permeability) [5]: significantly decreased
tail bleed time (STZ diabetic mice): prevented this accelerated coagulation; also recorded: reversed
MG-induced endothelial barrier permeability [6]: prevented
